Laboratory results from patent publication US8937052B2, “Therapeutic protocols using hyaluronan” (Alchemia Oncology Pty Limited, priority 2005, dated 2015).
Counter-ions that a name gives are not always drawn.

Tests used:
[1] = irinotecan 30 mg/kg i.v.
[2] = irinotecan 30 mg/kg i.v. (HyCAMP 26.6/30); 120 min
[3] = In situ perfusion: survival until experimental end-point; format: in vivo, Wistar rats; settings: irinotecan 60 mg/kg single i.v.
[4] = irinotecan 60 mg/kg i.v. (HyCAMP 26.6/60); 90 minute time point
[5] = in vivo
From the text: HA. […] All body organs and fluids were removed, weighed and [^3H] radioactivity quanitated using β-scintillation counting.

[6] = target: T1, tumour cell endogenous beta-glucuronidase (Homo sapiens, UniProt P08236); experiment: Endogenous beta-glucuronidase activity in tumour cell lysates incubated overnight with HA, compared to samples not containing hyaluronan; format: biochemical; settings: modelled from ≧2 μg of HA per μg tumour cell protein and 0.135 ng protein/cell
T1 construct: Activity of Endogenous Beta-Glucuronidase in Tumor Cells In Vitro; endogenous in cells; host or cells: HCT-116, LIM-1215, LIM-2099, SK-CO1, SW-1222, HT-29, SW-620, MSTO-211H, MDA-MB-468, MDA-MB-435 lysates
T1 sequence (P08236 23-651): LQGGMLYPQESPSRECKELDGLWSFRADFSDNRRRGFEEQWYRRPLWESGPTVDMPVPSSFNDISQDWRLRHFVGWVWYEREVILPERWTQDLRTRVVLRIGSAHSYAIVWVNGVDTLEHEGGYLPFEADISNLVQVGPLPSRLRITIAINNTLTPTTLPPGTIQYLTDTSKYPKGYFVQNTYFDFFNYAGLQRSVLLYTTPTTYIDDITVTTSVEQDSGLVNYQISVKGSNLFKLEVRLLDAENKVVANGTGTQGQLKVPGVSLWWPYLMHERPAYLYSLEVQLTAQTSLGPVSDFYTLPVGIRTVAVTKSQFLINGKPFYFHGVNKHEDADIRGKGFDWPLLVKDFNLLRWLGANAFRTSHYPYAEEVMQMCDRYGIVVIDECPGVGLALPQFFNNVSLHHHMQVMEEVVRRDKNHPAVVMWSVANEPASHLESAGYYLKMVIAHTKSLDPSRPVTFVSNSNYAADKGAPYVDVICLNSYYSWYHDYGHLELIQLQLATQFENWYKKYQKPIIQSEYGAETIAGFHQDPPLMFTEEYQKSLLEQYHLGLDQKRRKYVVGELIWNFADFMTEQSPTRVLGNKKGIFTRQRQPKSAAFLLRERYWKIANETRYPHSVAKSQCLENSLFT
Experimental: Stocks of the tumor cell lysates (0.8 mg protein/ml) were prepared from the original cell lysates. The hyaluronan stock of 10 mg/ml (10 kDa & 860 kDa) was diluted with potassium phosphate buffer to achieve 8 mg/ml, 3.2 mg/ml, 1.6 mg/ml, 0.4 mg/ml, 0.2 mg/ml, 0.04 mg/ml, 0.02 mg/ml and 0.0008 mg/ml of hyaluronan. The 25 mg/ml of <2 kDa HA was diluted further with potassium phosphate buffer to achieve 8 mg/ml, 3.2 mg/ml, 1.6 mg/ml, 0.4 mg/ml, 0.2 mg/ml, 0.04 mg/ml, 0.02 mg/ml and 0.0008 mg/ml of hyaluronan. The assay samples were prepared by aliquoting 125 μl of the different dilutions of hyaluronan to an Eppendorf tube containing 125 μl of 0.8 mg protein/ml cell lysates of the following cell lines; HCT-116, LIM-1215, LIM-2099, SK-CO1, SW-1222, HT-29, SW-620, MSTO-211H, MDA-MB-468 and MDA-MB-435. […] On completion of the incubation, the samples were thoroughly mixed by repeated invert mixing (˜20 times) after which the beta-glucuronidase was quantified using the 96-well-plate method.
The assay was performed in the wells of a black clear-bottom 96-well-plate where 50 μL of the tumour cell lysates (20 μg protein) were added to the wells and 50 μL of 75 mM of potassium phosphate buffer was used as the control blanking well. […] On completion of the incubation, 50 μL of stop buffer was added and the plate was read at 350 nm excitation and 450 nm emission on a Fluostar Optima plate reader.

Carboxylesterase = Carboxylesterase activity in tissue homogenates of the liver and the GI-tract; format: biochemical
From the text: Carboxylesterase • 2. beta-glucuronidase
Tissue homogenates of the liver and the GI-tract were used as the source of each enzyme. […] In addition to this mechanism, inhibition of beta-glucuronidase in the lumen of the GI tract would prevent the generation of SN-38 from SN-38G.

Row | Compound | quantities of SN-38 found in the spleen and lung [1] | cumulative intestinal exsorption of CPT-11 [2] [µg] | survival until experimental end-point [3] | cumulative biliary excretion of CPT-11 [4] [µg] | HA per tumour cell [5] | HA that would accumulate per gram of tumour [5] | HA per cell resulting in stimulation of endogenous beta-glucuronidase activity [6] [pg HA/cell] | effect on carboxylesterase activity (Carboxylesterase)
1 | CCc1c2c(nc3ccc(OC(=O)N4CCC(N5CCCCC5)CC4)cc13)-c1cc3c(c(=O)n1C2)COC(=O)[C@]3(O)CC [CPT-11, Irinotecan hydrochloride] | could not be detected | 525 | only one rat survived | 1388 | – | – | – | –
2 | hyaluronan [HA] | – | – | – | – | 51.6 pg of HA/cell | approximately 51.6 mg | ≥ 270 | did not affect the activity of carboxylesterase
